Consider 3 compounds from patent US20090137616A1, “METHOD FOR THE CONTROL OF PHYTOPATHOGENIC FUNGI” (Syngenta Crop Protection, Inc., priority 2004, published 2009).

Structures are written as SMILES.

One assay has as its system P. ultimum. Put plainly: Greenhouse seed treatment efficacy, Pioneer hybrid 34M95 seeds in Pythium-infested soil. Format: in vivo. The note with it: vs uninoculated seeds. From the text:
Seeds of the Pioneer hybrid 34M95 were untreated and treated with mefenoxam, azoxystrobin or trifloxystrobin at the rates described in Table 3. To test the efficacy of the seed treatment fungicides pasteurized soil was infested with each isolate of Pythium at a rate of 7.8% (volume of inoculum/volume of soil). All these studies were done under greenhouse conditions, and data presented as a comparison against uninoculated seeds.

Another assay has as its system Pythium. Nature of the assay: Sensitivity of Pythium isolates to phenylamide and strobilurin fungicides (summary). Type of assay: cell-based. The note with it: isolates from several species of Pythium that are insensitive to mefenoxam. The procedure: Plant and soil samples were collected from fields where plant stand establishment issues appeared to be increasing when using standard mefenoxam or metalaxyl seed treatment fungicide programs. Fungal pathogens were isolated from the plant and soil material. Pythium species were identified and studies were conducted to determine the sensitivity of these fungal pathogens to phenylamide and strobilurin fungicides. It can be seen that isolates from several species of Pythium that are insensitive to mefenoxam are sensitive to azoxystrobin or trifloxystrobin.

[1] abbreviates: P. ultimum 03-047, seed treatment 2 g a.i/100 KgSeeds.
[2] abbreviates: P. ultimum 03-795, seed treatment 2 g a.i/100 KgSeeds.
The mark [3] stands for this setting: P. ultimum 03-047, seed treatment 5 g a.i/100 KgSeeds.
Where [4] appears, read: P. ultimum 03-795, seed treatment 5 g a.i/100 KgSeeds.
[5] abbreviates: P. ultimum 03-047, seed treatment 1 g a.i/100 KgSeeds.
The mark [6] stands for this setting: P. ultimum 03-795, seed treatment 1 g a.i/100 KgSeeds.

Take `COCC(=O)N(c1c(C)cccc1C)[C@H](C)C(=O)OC` [Mefenoxam, mefenoxam]: the “% fresh weight reduction” value was 5.2% in the assay on P. ultimum (setting [1]) and 15.3% with P. ultimum (setting [2]). Further, the “% stand reduction” value with P. ultimum (setting [1]) and in the assay on P. ultimum (setting [2]) was 6.7% in each case.

`CON=C(C(=O)OC)c1ccccc1CON=C(C)c1cccc(C(F)(F)F)c1` [Trifloxystrobin, trifloxystrobin]: the “% fresh weight reduction” value in the assay on P. ultimum (setting [3]) is listed as 0.0%; in the assay on P. ultimum (setting [4]), 24.1%. The “% stand reduction” value in the assay on P. ultimum (setting [3]) is 0.0%; in the assay on P. ultimum (setting [4]), 6.7%. In addition, the “sensitivity of mefenoxam-insensitive Pythium isolates” value in the assay with Pythium is listed as “sensitive”.

In the case of `CO/C=C(/C(=O)OC)c1ccccc1Oc1cc(Oc2ccccc2C#N)ncn1` [Azoxystrobin, azoxystrobin], in the assay on P. ultimum (setting [5]), the “% fresh weight reduction” value turned out to be 7.9% and the “% stand reduction” value is given as 0.0%. In the assay on P. ultimum (setting [6]), the “% fresh weight reduction” value stood at 24.7% and the “% stand reduction” value is given as 6.7%. In addition, the “sensitivity of mefenoxam-insensitive Pythium isolates” value in the assay with Pythium is reported as “sensitive”.
